What all share (assay): GloSensor cAMP luminescence, HEK-293
Holding throughout (type): cell-based

The target of assay [1] is T1, OR10A6 (Homo sapiens, UniProt Q8NH74, A117V/L287P/V140G).
T1 construct: full coding region from human genomic DNA in pFN210A, N-terminal IL-6-HaloTag; HEK-293 with RTP1S, G-alpha-olf, G-gamma-13, GloSensor-22F
T1 sequence (Q8NH74 1-314 A117V/V140G/L287P): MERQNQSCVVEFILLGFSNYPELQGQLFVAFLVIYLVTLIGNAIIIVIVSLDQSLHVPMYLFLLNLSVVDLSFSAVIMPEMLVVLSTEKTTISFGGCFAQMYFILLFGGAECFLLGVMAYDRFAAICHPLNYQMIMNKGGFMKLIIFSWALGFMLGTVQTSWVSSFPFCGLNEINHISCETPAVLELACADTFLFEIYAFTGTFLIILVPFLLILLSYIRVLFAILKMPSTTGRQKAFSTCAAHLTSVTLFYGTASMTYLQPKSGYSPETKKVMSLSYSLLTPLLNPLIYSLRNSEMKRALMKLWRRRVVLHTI
The source says:
(§1) GloSensor cAMP luminescence, HEK-293 on OR10A6

Assay [2] concerns the target T2, OR10A6 (Homo sapiens, UniProt Q8NH74).
T2 construct: full coding region from human genomic DNA in pFN210A, N-terminal IL-6-HaloTag; HEK-293 with RTP1S, G-alpha-olf, G-gamma-13, GloSensor-22F
T2 sequence (Q8NH74 1-314): T1 sequence (Q8NH74 1-314 A117V/V140G/L287P) with V117A, G140V, P287L
Text: as §1

The target in assay [3] is T3, OR10A6 (Homo sapiens, UniProt Q8NH74, L287P).
T3 construct: full coding region from human genomic DNA in pFN210A, N-terminal IL-6-HaloTag; HEK-293 with RTP1S, G-alpha-olf, G-gamma-13, GloSensor-22F
T3 sequence (Q8NH74 1-314 L287P): T1 sequence (Q8NH74 1-314 A117V/V140G/L287P) with V117A, G140V
Text: as §1

Assay [4] addresses T4, OR2W1 (Homo sapiens, UniProt Q9Y3N9, M81V).
T4 construct: full coding region from human genomic DNA in pFN210A, N-terminal IL-6-HaloTag; HEK-293 with RTP1S, G-alpha-olf, G-gamma-13, GloSensor-22F
T4 sequence (Q9Y3N9 1-320 M81V): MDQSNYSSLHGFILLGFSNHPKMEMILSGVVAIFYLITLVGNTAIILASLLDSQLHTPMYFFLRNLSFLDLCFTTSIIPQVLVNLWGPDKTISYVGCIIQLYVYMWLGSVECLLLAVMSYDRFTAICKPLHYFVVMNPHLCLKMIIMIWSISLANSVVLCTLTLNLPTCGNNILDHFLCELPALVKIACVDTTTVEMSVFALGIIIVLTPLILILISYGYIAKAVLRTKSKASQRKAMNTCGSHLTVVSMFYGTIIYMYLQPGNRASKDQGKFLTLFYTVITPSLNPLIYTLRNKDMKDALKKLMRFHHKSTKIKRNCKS
The source says:
(§2) GloSensor cAMP luminescence, HEK-293 on OR2W1

The target of assay [5] is T5, OR2W1 (Homo sapiens, UniProt Q9Y3N9, D296N).
T5 construct: full coding region from human genomic DNA in pFN210A, N-terminal IL-6-HaloTag; HEK-293 with RTP1S, G-alpha-olf, G-gamma-13, GloSensor-22F
T5 sequence (Q9Y3N9 1-320 D296N): T4 sequence (Q9Y3N9 1-320 M81V) with V81M, D296N
Text: as §2

Assay [6] deals with T6, OR2W1 (Homo sapiens, UniProt Q9Y3N9).
T6 construct: full coding region from human genomic DNA in pFN210A, N-terminal IL-6-HaloTag; HEK-293 with RTP1S, G-alpha-olf, G-gamma-13, GloSensor-22F
T6 sequence (Q9Y3N9 1-320): T4 sequence (Q9Y3N9 1-320 M81V) with V81M
Text: as §2

The mark [7] stands for this setting: read-out: Z4-11Al EC50 [μmol/L] ^a.

Positions count from the first letter of the chain named. Read-outs that look alike come from different tables or passages of the source.

Turning to `CCCCCC/C=C\CCC=O` [Z4-11Al, (Z)-4-undecenal], the EC50 was over 1000 µM in assay [1]; over 1000 µM in assay [2]; 28.2 ± 12.6 µmol/L in assay [3] (setting [7]); over 1000 µM in assay [4] (read-out: EC50); 40.4 ± 12 µmol/L in assay [5] (setting [7]); 65.1 ± 35.8 µmol/L in assay [6] (setting [7]).
As for `CCCC/C=C\CCCCC=O` [Z6-11Al, (Z)-6-undecenal], the EC50 in assay [1] is over 1000 µM; in assay [2], over 1000 µM; in assay [3] (read-out: Z6-11Al), 34.8 ± 9.21 µmol/L; in assay [4] (read-out: EC50), over 1000 µM; in assay [5] (read-out: Z6-11Al) it was 138 ± 55 µmol/L; in assay [6] (read-out: Z6-11Al), 104 ± 27 µmol/L.
With `CCCC/C=C\CCC=O` [Z4-9Al, (Z)-4-nonenal], the EC50 in assay [1] was over 1000 µM; in assay [2], over 1000 µM; in assay [3] (read-out: Z4-9Al) it was 41.1 ± 14.2 µmol/L; in assay [4] (read-out: Z4-9Al) it was 142 ± 92.4 µM; in assay [5] (read-out: Z4-9Al) it was 91.8 ± 46.2 µmol/L; in assay [6] (read-out: Z4-9Al), 119 ± 23.1 µmol/L.

These data come from paper PMC9589189, “The human odorant receptor OR10A6 is tuned to the pheromone of the commensal fruit fly Drosophila melanogaster” (iScience, 2022).
